Source: a melting point compilation (Tetko et al.)

| melting point | Structure (SMILES) |
| --- | --- |
| 109 to 111 °C | COc1ccc(-c2noc(CCCC(=O)O)n2)cc1 |
| 206 to 208 °C | O=C(O)c1cc(O)cs1 |
| 70 to 72 °C | NC1CCN(c2ccccc2Cl)C1=O (stereo not given) |
| 45 to 47 °C | Cc1cc(Cl)nnc1C |
| 194 to 196 °C | Cc1cc(/C=C/C(=O)O)c(C)n1-c1ccc2c(c1)OCO2 |
| 162 to 164 °C | Cc1ccc(S(=O)(=O)NC(C)C)cc1C(=O)O |
| 98 to 100 °C | COCCN(C(C)=O)c1nc(CCl)cs1 |
| 69 to 71 °C | Cc1ccc(N(C)C(C)C)c(C(=O)O)c1 |
| 123 to 125 °C | COc1nc2cc(N)ccc2o1 |
| 86 to 88 °C | O=C1CCOc2c(Cl)cc(Cl)cc21 |
| 45 to 47 °C | N#CC=C(Cl)c1cccc(OC(F)F)c1 |
| 173 to 175 °C | O=C(O)CN1CCSC1=O |
| 181 to 183 °C | Cc1ccc(C(=O)O)cc1S(=O)(=O)Nc1cc(Cl)ccc1F |
| 141 to 143 °C | COc1ccc(C)cc1/C=C/C(=O)O |
| 165 to 167 °C | O=C(O)C#Cc1ccc2c(c1)OCO2 |
| 102 to 104 °C | CCN(C)C(=O)c1cccc(C(=O)O)c1 |
| 175 to 177 °C | NC(=O)c1ccnc(F)c1 |
| 275 to 277 °C | O=C(O)c1ccc(NC(=O)c2ccccc2I)cc1 |
| 96 to 98 °C | c1ccc(CCc2nnn[nH]2)cc1 |

| melting point | Structure (SMILES) |
| --- | --- |
| 186 to 188 °C | NCc1cccc(NS(=O)(=O)c2ccc(Cl)cc2)c1 |
| < 17 °C | O=C1CN=C(S)N1Cc1ccccc1 |
| 111 to 113 °C | CN1CCCC1C(=O)O (stereo not given) |
| 153 to 155 °C | CC(Cl)C(=O)Nc1c(Cl)cc(Cl)cc1Cl (stereo not given) |
| 161 to 164 °C | COc1ccccc1NC(=O)c1cc2ccccc2cc1O |
| 148 to 150 °C | COC(=O)c1n[nH]c(C)c1Br |
| 61 to 63 °C | O=Cc1ccc(OCCBr)c(Cl)c1 |
| 135 to 137 °C | Cc1ccc(-n2nc(C)c(C=O)c2Cl)cc1 |
| 86 to 88 °C | O=S(=O)(Cl)c1csc(-c2ccccc2)n1 |
| 129 to 131 °C | Cc1ccc(CC(=O)O)c(Cl)c1 |
| 156 to 158 °C | CN(C)C(=O)c1ccc(O)cc1 |
| 122 to 124 °C | CC(C)Oc1ccc(C(=O)O)cn1 |
| 269 to 271 °C | NC(=O)c1sc2cc(Cl)ccc2c1Cl |
| 269 to 271 °C | O=C(O)c1cnc2sccn2c1=O |
| 69 to 71 °C | COC(=O)c1cc2ccccc2n1C |
| 108 to 110 °C | CNc1ncccc1N |
| 142 to 144 °C | N#Cc1cc(S(N)(=O)=O)ccc1F |
| 210 to 212 °C | Cc1nc(-c2ccc(O)cc2)cs1 |
| 137 to 139 °C | Cc1cccc(NC(=O)CCCCl)c1 |

| melting point | Structure (SMILES) |
| --- | --- |
| 59 to 61 °C | Cc1cccc(C)c1C(C)O (stereo not given) |
| 90 to 92 °C | NNC(=O)CC(F)(F)F |
| 163 to 165 °C | Cc1ccc(C=CC(=O)O)nc1 |
| 143 to 145 °C | O=C(Cn1cnnn1)N1CCNCC1 |
| 95 to 97 °C | Cc1cc(NCc2ccco2)ncn1 |
| 144 to 146 °C | O=C(O)Cc1coc(-c2ccc(F)c(F)c2)n1 |
| 79 to 81 °C | OCC1CNc2ccccc2C1 (stereo not given) |
| 116 to 118 °C | COc1cc(C)nc(NN)n1 |
| 123 to 125 °C | O=C(O)CCCNS(=O)(=O)c1ccc(Cl)c(Cl)c1 |
| 286 to 288 °C | Oc1ccnc2cc(Br)ccc12 |
| 192 to 194 °C | Cc1ccc(C)c(-n2ccnc2S)c1 |
| 79 to 81 °C | CC(C)(C)c1cnc(N)s1 |
| 110 to 112 °C | Nc1nc(CN2CCN(Cc3ccccc3)CC2)cs1 |
| 44 to 46 °C | CCOC(=O)c1cc(C)cc(Br)c1N |
| 164 to 166 °C | CC(O)c1ccc(NC(=O)c2ccccc2)cc1 (stereo not given) |
| 123 to 125 °C | O=C1CC(N2CCCC2)C(=O)N1 (stereo not given) |
| 132 to 134 °C | O=C(O)c1ccc2cccnn12 |
| 213 to 215 °C | Nc1ccccc1-c1nc(C2CC2)n[nH]1 |
| 155 to 157 °C | CCC(C)n1c(SCC(=O)O)nnc1-c1ccccc1 (stereo not given) |

| Structure (SMILES) | melting point |
| --- | --- |
| Fc1cccc(CBr)c1Cl | 39 to 41 °C |
| CC(C)(C)n1cc(C(=O)O)c(Br)n1 | 163 to 165 °C |
| COc1ccc(Cn2[nH]ccc2=N)c(OC)c1 | 76 to 78 °C |
